{"source": "paper PMC5804415", "about": "“Comparison of ^68Ga-DOTA-Siglec-9 and ^18F-Fluorodeoxyribose-Siglec-9: Inflammation Imaging and Radiation Dosimetry” (Contrast Media & Molecular Imaging, 2017)", "key": {"[1]": {"tested_on": "rats with skin/muscle inflammation (turpentine oil)", "format": "in vivo, rat", "conditions": "rat, in vivo, iv", "method": "Rats were divided into two groups with Group 1 being intravenously (i.v.) given ^68Ga-DOTA-Siglec-9 (16 ± 2.9 MBq, n = 8) and Group 2 ^18F-FDR-Siglec-9 (18 ± 5.1 MBq, n = 8). A 60 min dynamic PET acquisition was performed on a High Resolution Research Tomograph (HRRT; Siemens Medical Solutions, Knoxville, TN, USA). The PET data were reconstructed into 5 × 60 s and 11 × 300 s frames using an ordered-subsets expectation maximization 3D algorithm (OSEM3D). Quantitative PET image analysis was performed by defining regions of interest (ROIs) within the inflamed area (on the left foreleg), control area (on the right foreleg), kidneys, lungs, heart, liver, and urinary bladder using […] 2.8 software (Turku PET Centre). Results were expressed as standardized uptake values (SUV) and time-activity curves. SUV was calculated as a ratio of tissue radioactivity concentration (Bq/mL) and given radioactivity dose (Bq) divided by animal's body weight."}, "[2]": {"conditions": "SD", "description": "Absorbed doses of ^68Ga-DOTA-Siglec-9 and ^18F-FDR-Siglec-9 were calculated with the OLINDA/EXM version 1.0 software (organ level internal dose assessment and exponential modeling; Vanderbilt University, Nashville, TN, USA), which applies the MIRD schema (developed by the Medical Internal Radiation Dose committee of the Society of Nuclear Medicine) for radiation dose calculations in internal exposure. The software includes radionuclide information and selection of human body phantoms. The residence times derived from the rat data were integrated as the area under the time-activity curve. The residence times were converted into corresponding human values by multiplication with a factor to scale the organ and body weights: (WBody,rat/WOrgan,rat)×(WOrgan,human/WBody,human), where WBody,rat and WBody,human are the body weights of rat and human (a 70-kg male), respectively; and WOrgan,rat and WOrgan,human are the organ weights of rat and human (organ weights for a 70 kg male), respectively [14]."}, "[3]": {"tested_on": "LDLR^−/−ApoB^100/100 atherosclerotic mice", "parameters": "method as in PMID 27731409", "conditions": "mouse, in vivo; cited from earlier work"}, "in vivo": {"assay": "in vivo", "conditions": "Sprague-Dawley, rat, iv, total radioactivity, Ex vivo biodistribution, SD", "excerpt": "Twenty-four hours before the PET studies, Sprague-Dawley rats (weight, 350 ± 22 g; n = 16) were subcutaneously injected with turpentine oil (Sigma-Aldrich) to induce focal acute, sterile inflammation [12]. Before the injection, rats were shaved on the both forelegs. Inflamed area on the left foreleg contained both skin and muscle. The intact, contralateral side (right foreleg) was used as a control.\nAfter PET imaging, rats were sacrificed and various tissues were excised and weighed, and their radioactivity levels were measured with a gamma counter (1480 Wizard 3′′, PerkinElmer, Turku, Finland). The ex vivo biodistribution results were expressed as a percentage of the injected radioactivity dose per gram of tissue (% ID/g) and target-to-background ratio."}}, "note": "Positions of bridges follow the written chain, without caps; N, C: chain ends. Residues, ends and D or L forms follow the SMILES beside them. *: point of attachment. DOTA = O=C(O)CN1CCN(CC(=O)O)CCN(CC(=O)*)CCN(CC(=O)O)CC1; AEEA = NCCOCCOCC(=O)O", "data": [{"smiles": "CC(C)C[C@@H]1NC(=O)CNC(=O)[C@H](CCCNC(=N)N)NC(=O)[C@H](Cc2c[nH]c3ccccc23)NC(=O)[C@H](CO)NC(=O)[C@H](CC(C)C)NC(=O)[C@H](CO)NC(=O)[C@H](CC(C)C)NC(=O)[C@H](CCCNC(=N)N)NC(=O)[C@H](C)NC(=O)[C@@H](NC(=O)COCCOCCNC(=O)CN2CCN(CC(=O)O)CCN(CC(=O)O)CCN(CC(=O)O)CC2)CSSC[C@@H](C(=O)N2CCC[C@H]2C(=O)N[C@@H](CO)C(=O)N[C@@H](CCCCN)C(=O)O)NC(=O)[C@H](CC(C)C)NC(=O)[C@H]([C@@H](C)O)NC1=O", "note": "[^68Ga-DOTA-Siglec-9, metal not drawn] ({DOTA-AEEA}-CARLSLSWRGLTLCPSK-OH; disulfide 1-14)", "values": [{"measurement": "time of peak uptake in the inflamed area after the i.v. bolus injection", "setting": "[1]", "value": "about 10 min"}, {"measurement": "Human dose equivalent estimate, Adrenals", "setting": "[2]", "value": "0.014 ± 0.0012", "unit": "mSv/MBq"}, {"measurement": "Human dose equivalent estimate, Brain", "setting": "[2]", "value": "0.012 ± 0.00077", "unit": "mSv/MBq"}, {"measurement": "Human dose equivalent estimate, Breasts", "setting": "[2]", "value": "0.011 ± 0.00064", "unit": "mSv/MBq"}, {"measurement": "Human dose equivalent estimate, Gallbladder wall", "setting": "[2]", "value": "0.014 ± 0.00065", "unit": "mSv/MBq"}, {"measurement": "Human dose equivalent estimate, Heart wall", "setting": "[2]", "value": "0.0083 ± 0.0010", "unit": "mSv/MBq"}, {"measurement": "Human dose equivalent estimate, Kidneys", "setting": "[2]", "value": "0.15 ± 0.12", "unit": "mSv/MBq"}, {"measurement": "Human dose equivalent estimate, Liver", "setting": "[2]", "value": "0.012 ± 0.0024", "unit": "mSv/MBq"}, {"measurement": "Human dose equivalent estimate, Lower large intestine wall", "setting": "[2]", "value": "0.015 ± 0.00077", "unit": "mSv/MBq"}, {"measurement": "Human dose equivalent estimate, Lungs", "setting": "[2]", "value": "0.0044 ± 0.00054", "unit": "mSv/MBq"}, {"measurement": "Human dose equivalent estimate, Muscle", "setting": "[2]", "value": "0.0050 ± 0.00018", "unit": "mSv/MBq"}, {"measurement": "Human dose equivalent estimate, Osteogenic cells", "setting": "[2]", "value": "0.017 ± 0.00094", "unit": "mSv/MBq"}, {"measurement": "Human dose equivalent estimate, Ovaries", "setting": "[2]", "value": "0.015 ± 0.00064", "unit": "mSv/MBq"}, {"measurement": "Human dose equivalent estimate, Pancreas", "setting": "[2]", "value": "0.014 ± 0.00085", "unit": "mSv/MBq"}, {"measurement": "Human dose equivalent estimate, Red marrow", "setting": "[2]", "value": "0.010 ± 0.00037", "unit": "mSv/MBq"}, {"measurement": "Human dose equivalent estimate, Skin", "setting": "[2]", "value": "0.010 ± 0.00054", "unit": "mSv/MBq"}, {"measurement": "Human dose equivalent estimate, Small intestine", "setting": "[2]", "value": "0.014 ± 0.00047", "unit": "mSv/MBq"}, {"measurement": "Human dose equivalent estimate, Spleen", "setting": "[2]", "value": "0.014 ± 0.0011", "unit": "mSv/MBq"}, {"measurement": "Human dose equivalent estimate, Stomach wall", "setting": "[2]", "value": "0.013 ± 0.00065", "unit": "mSv/MBq"}, {"measurement": "Human dose equivalent estimate, Testes", "setting": "[2]", "value": "0.013 ± 0.00062", "unit": "mSv/MBq"}, {"measurement": "Human dose equivalent estimate, Thymus", "setting": "[2]", "value": "0.011 ± 0.00068", "unit": "mSv/MBq"}, {"measurement": "Human dose equivalent estimate, Thyroid", "setting": "[2]", "value": "0.011 ± 0.00072", "unit": "mSv/MBq"}, {"measurement": "Human dose equivalent estimate, Total body", "setting": "[2]", "value": "0.013 ± 0.00041", "unit": "mSv/MBq"}, {"measurement": "Human dose equivalent estimate, Upper large intestine wall", "setting": "[2]", "value": "0.014 ± 0.00046", "unit": "mSv/MBq"}, {"measurement": "Human dose equivalent estimate, Urinary bladder wall", "setting": "[2]", "value": "0.20 ± 0.087", "unit": "mSv/MBq"}, {"measurement": "Human dose equivalent estimate, Uterus", "setting": "[2]", "value": "0.018 ± 0.0017", "unit": "mSv/MBq"}, {"measurement": "Human effective dose estimate", "setting": "[2]", "value": "0.024 ± 0.0041", "unit": "mSv/MBq"}, {"measurement": "Normalized number of disintegrations, Heart wall", "setting": "[2]", "value": "0.0029 ± 0.00072", "unit": "h"}, {"measurement": "Normalized number of disintegrations, Kidneys", "setting": "[2]", "value": "0.093 ± 0.081", "unit": "h"}, {"measurement": "Normalized number of disintegrations, Liver", "setting": "[2]", "value": "0.033 ± 0.0097", "unit": "h"}, {"measurement": "Normalized number of disintegrations, Lungs", "setting": "[2]", "value": "0.0026 ± 0.0011", "unit": "h"}, {"measurement": "Normalized number of disintegrations, Muscle", "setting": "[2]", "value": "0.054 ± 0.0088", "unit": "h"}, {"measurement": "Normalized number of disintegrations, Total body", "setting": "[2]", "value": "1.3 ± 0.085", "unit": "h"}, {"measurement": "Normalized number of disintegrations, Urinary bladder wall", "setting": "[2]", "value": "0.17 ± 0.076", "unit": "h"}, {"measurement": "aortic uptake, previously reported", "setting": "[3]", "value": "0.83 ± 0.33", "unit": "% ID/g"}, {"measurement": "tissue uptake at 1 h", "setting": "in vivo; Adipose tissue, BAT", "value": "0.024 ± 0.026", "unit": "%ID/g"}, {"measurement": "tissue uptake at 1 h", "setting": "in vivo; Adipose tissue, WAT", "value": "0.027 ± 0.014", "unit": "%ID/g"}, {"measurement": "tissue uptake at 1 h", "setting": "in vivo; Blood", "value": "0.099 ± 0.04", "unit": "%ID/g"}, {"measurement": "tissue uptake at 1 h", "setting": "in vivo; Bone (femoral)", "value": "0.02 ± 0.0089", "unit": "%ID/g"}, {"measurement": "tissue uptake at 1 h", "setting": "in vivo; Bone marrow", "value": "0.039 ± 0.012", "unit": "%ID/g"}, {"measurement": "tissue uptake at 1 h", "setting": "in vivo; Brain", "value": "0.0062 ± 0.0049", "unit": "%ID/g"}, {"measurement": "tissue uptake at 1 h", "setting": "in vivo; Control area", "value": "0.051 ± 0.0063", "unit": "%ID/g"}, {"measurement": "tissue uptake at 1 h", "setting": "in vivo; Heart", "value": "0.03 ± 0.011", "unit": "%ID/g"}, {"measurement": "tissue uptake at 1 h", "setting": "in vivo; Inflamed area", "value": "0.12 ± 0.032", "unit": "%ID/g"}, {"measurement": "tissue uptake at 1 h", "setting": "in vivo; Kidneys", "value": "2.8 ± 1.8", "unit": "%ID/g"}, {"measurement": "tissue uptake at 1 h", "setting": "in vivo; Liver", "value": "0.32 ± 0.16", "unit": "%ID/g"}, {"measurement": "tissue uptake at 1 h", "setting": "in vivo; Lungs", "value": "0.079 ± 0.035", "unit": "%ID/g"}, {"measurement": "tissue uptake at 1 h", "setting": "in vivo; Muscle", "value": "0.019 ± 0.0091", "unit": "%ID/g"}, {"measurement": "tissue uptake at 1 h", "setting": "in vivo; Pancreas", "value": "0.024 ± 0.0024", "unit": "%ID/g"}, {"measurement": "tissue uptake at 1 h", "setting": "in vivo; Plasma", "value": "0.13 ± 0.015", "unit": "%ID/g"}, {"measurement": "tissue uptake at 1 h", "setting": "in vivo; Small intestine", "value": "0.06 ± 0.016", "unit": "%ID/g"}, {"measurement": "tissue uptake at 1 h", "setting": "in vivo; Spleen", "value": "0.19 ± 0.11", "unit": "%ID/g"}, {"measurement": "tissue uptake at 1 h", "setting": "in vivo; male, Testis", "value": "0.035 ± 0.031", "unit": "%ID/g"}]}]}
